Test [1] has as its target T1, RAC-alpha serine/threonine-protein kinase (Homo sapiens, UniProt P31749). Briefly: Inhibition of Akt1.
The target of test [2] is T2, RAC-beta serine/threonine-protein kinase (Homo sapiens, UniProt P31751). Nature of the test: Inhibition of Akt2.
Test [3] concerns the target T1, RAC-alpha serine/threonine-protein kinase. Nature of the test: Inhibition of Akt1 by cellular assay.
Test [4] addresses T2, RAC-beta serine/threonine-protein kinase. Briefly: Inhibition of Akt2 by cellular assay.
Test [5] concerns the target Voltage-gated inwardly rectifying potassium channel KCNH2 (Homo sapiens, UniProt Q12809). Briefly: Inhibition of human ERG in embryonic kidney cells by radioligand-binding competition assay.

Each structure is given as a SMILES string. A value given as a limit tells only on which side of the number the result lay.

T2 sequence (P31751 whole entry): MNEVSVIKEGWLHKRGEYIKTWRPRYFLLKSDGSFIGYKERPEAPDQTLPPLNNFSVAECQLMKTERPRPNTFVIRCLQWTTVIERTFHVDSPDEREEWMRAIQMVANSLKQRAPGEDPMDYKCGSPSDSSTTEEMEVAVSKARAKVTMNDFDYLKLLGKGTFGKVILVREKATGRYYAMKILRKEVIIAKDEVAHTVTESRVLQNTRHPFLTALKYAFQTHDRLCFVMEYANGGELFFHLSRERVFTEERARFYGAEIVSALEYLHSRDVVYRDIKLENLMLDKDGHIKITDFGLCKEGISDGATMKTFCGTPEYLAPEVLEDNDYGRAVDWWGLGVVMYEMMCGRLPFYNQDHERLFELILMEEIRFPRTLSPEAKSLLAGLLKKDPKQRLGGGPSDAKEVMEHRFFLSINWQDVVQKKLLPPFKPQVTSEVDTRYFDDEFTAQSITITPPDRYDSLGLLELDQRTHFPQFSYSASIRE
Chain of Voltage-gated inwardly rectifying potassium channel KCNH2 (Q12809 whole entry): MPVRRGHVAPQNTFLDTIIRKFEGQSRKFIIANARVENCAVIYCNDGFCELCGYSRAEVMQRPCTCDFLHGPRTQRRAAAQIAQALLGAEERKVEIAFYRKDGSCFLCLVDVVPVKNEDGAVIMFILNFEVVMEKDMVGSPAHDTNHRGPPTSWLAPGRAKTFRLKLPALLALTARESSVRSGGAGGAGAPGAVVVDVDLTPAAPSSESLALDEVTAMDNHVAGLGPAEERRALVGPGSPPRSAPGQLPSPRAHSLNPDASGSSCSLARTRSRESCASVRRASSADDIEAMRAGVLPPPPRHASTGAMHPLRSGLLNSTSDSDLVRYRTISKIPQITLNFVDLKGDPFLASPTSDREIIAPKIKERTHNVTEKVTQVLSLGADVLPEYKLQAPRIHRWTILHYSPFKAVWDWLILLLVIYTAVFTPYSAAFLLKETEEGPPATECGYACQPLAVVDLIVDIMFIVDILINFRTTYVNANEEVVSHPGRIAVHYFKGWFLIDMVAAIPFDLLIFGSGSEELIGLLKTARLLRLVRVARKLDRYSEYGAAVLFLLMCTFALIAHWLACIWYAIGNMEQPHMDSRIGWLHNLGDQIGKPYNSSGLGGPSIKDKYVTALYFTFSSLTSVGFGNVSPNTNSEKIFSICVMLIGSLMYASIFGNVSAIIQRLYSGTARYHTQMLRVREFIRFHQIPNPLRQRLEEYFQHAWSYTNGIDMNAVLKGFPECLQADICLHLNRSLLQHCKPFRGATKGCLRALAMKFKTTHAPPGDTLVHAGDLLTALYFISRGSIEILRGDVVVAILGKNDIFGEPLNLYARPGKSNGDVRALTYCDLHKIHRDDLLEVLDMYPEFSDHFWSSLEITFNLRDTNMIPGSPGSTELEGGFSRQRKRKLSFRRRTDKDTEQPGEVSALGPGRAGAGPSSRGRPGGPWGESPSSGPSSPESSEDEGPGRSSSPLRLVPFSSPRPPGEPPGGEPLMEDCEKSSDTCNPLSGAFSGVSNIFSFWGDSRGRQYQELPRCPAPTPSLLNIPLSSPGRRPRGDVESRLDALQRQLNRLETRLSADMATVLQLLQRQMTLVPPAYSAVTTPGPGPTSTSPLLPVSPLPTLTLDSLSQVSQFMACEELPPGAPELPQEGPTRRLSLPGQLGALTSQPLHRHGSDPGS
T1 sequence (P31749 whole entry): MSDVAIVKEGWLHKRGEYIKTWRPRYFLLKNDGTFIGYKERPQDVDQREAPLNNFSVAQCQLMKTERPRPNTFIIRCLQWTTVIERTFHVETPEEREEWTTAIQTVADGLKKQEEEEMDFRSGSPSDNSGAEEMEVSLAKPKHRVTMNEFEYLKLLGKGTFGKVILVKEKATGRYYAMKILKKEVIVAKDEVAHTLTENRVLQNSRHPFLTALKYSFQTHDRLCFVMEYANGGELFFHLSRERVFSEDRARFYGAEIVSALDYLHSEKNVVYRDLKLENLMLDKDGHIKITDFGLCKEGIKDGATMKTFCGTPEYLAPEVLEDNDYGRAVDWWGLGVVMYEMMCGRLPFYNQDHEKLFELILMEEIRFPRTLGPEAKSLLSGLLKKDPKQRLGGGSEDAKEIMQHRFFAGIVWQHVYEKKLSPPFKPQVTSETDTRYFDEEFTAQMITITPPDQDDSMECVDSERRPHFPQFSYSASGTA

Turning to `O=C1NCCc2nc(-c3ccc(CN4CCC(c5nnc(-c6ccccn6)[nH]5)CC4)cc3)c(-c3ccccc3)cc21`, the half-inhibitory concentration (IC50) (usually the concentration that inhibits the measured activity by half) in test [1] was determined as 3.5 nM; in test [2], 26 nM; in test [3] it was 16 nM; in test [4], 224 nM; in test [5] it was 2500 nM.
In the case of `OCCN1CCN(c2ncc3cc(-c4ccccc4)c(-c4ccc(CN5CCC(c6nc(-c7ncccn7)n[nH]6)CC5)cc4)nc3n2)CC1`, the IC50 is 37 nM in test [3], 80 nM in test [4] and more than 10000 nM in test [5].
For `CN(C)CCN1CCN(c2ccc3nc(-c4ccccc4)c(-c4ccc(CN5CCC(c6nnc(-c7ccccn7)[nH]6)CC5)cc4)nc3n2)CC1`, the IC50 turned out to be 10 nM in test [3] and 43 nM in test [4].
Regarding `CN(C)CCN1CCN(c2ccc3nc(-c4ccccc4)c(-c4ccc(CN5CCC(c6nc(-c7ncccn7)n[nH]6)CC5)cc4)nc3n2)CC1`, the IC50 in test [3] is 104 nM; in test [4] it was 116 nM; in test [5], more than 10000 nM.
In the case of `OCCN1CCN(c2ccc3nc(-c4ccccc4)c(-c4ccc(CN5CCC(c6nnc(-c7ccccn7)[nH]6)CC5)cc4)nc3n2)CC1`, the values for the 50% inhibitory concentration (IC50) in test [3] and in test [4] were 13 nM and 48 nM, respectively.
Regarding `CN1CCN(c2ncc3cc(-c4ccccc4)c(-c4ccc(CN5CCC(c6nnc(-c7cc[n+]([O-])cc7)[nH]6)CC5)cc4)nc3n2)CC1`, the IC50 was found to be 88 nM in test [3], 185 nM in test [4] and 9800 nM in test [5].
Turning to `CN(C)CCN1CCN(c2ncc3cc(-c4ccccc4)c(-c4ccc(CN5CCC(c6nnc(-c7ccccn7)[nH]6)CC5)cc4)nc3n2)CC1`, the IC50 turned out to be 4 nM in test [1]; 4 nM in test [2]; 10 nM in test [3]; 39 nM in test [4]; 2100 nM in test [5].
Take `[O-][n+]1ccc(-c2nnc(C3CCN(Cc4ccc(-c5nc6nc(N7CCN(CCO)CC7)ncc6cc5-c5ccccc5)cc4)CC3)[nH]2)cc1`: the figures for the IC50 in test [3], in test [4] and in test [5] were 67 nM, 146 nM and more than 10000 nM, respectively.
On to `COc1ccc(-c2nnc(C3CCN(Cc4ccc(-c5nc6cc[nH]c(=O)c6cc5-c5ccccc5)cc4)CC3)[nH]2)cn1`, for which the 50% inhibitory concentration (IC50) in test [1] worked out at 3 nM; in test [2], 16 nM; in test [3], 40 nM; in test [4], 159 nM; in test [5], 1220 nM.
`O=c1[nH]ccc2nc(-c3ccc(CN4CCC(c5nnc(-c6cnccn6)[nH]5)CC4)cc3)c(-c3ccccc3)cc12`: the IC50 in test [1] turned out to be 4 nM; in test [2], 21 nM; in test [3], 44 nM; in test [4] it was 405 nM.
On to `Nc1ccc(-c2nnc(C3CCN(Cc4ccc(-c5nc6cc[nH]c(=O)c6cc5-c5ccccc5)cc4)CC3)[nH]2)cn1`, for which the concentration for half-maximal inhibition (IC50) in test [1] was determined as 4 nM; in test [2], 33 nM; in test [3], 26 nM; in test [4] it was 165 nM; in test [5] it was 10000 nM.
In the case of `O=c1ccc(-c2nnc(C3CCN(Cc4ccc(-c5nc6nc(N7CCN(CCO)CC7)ncc6cc5-c5ccccc5)cc4)CC3)[nH]2)c[nH]1`, the IC50 in test [3] turned out to be 127 nM; in test [4], 284 nM; in test [5], 6800 nM.
On to `CN(C)CCN1CCN(c2ncc3cc(-c4ccccc4)c(-c4ccc(CN5CCC(c6nnc(-c7ccc(N)nc7)[nH]6)CC5)cc4)nc3n2)CC1`, for which the half-inhibitory concentration (IC50) in test [3] was 37 nM; in test [4], 140 nM.
For the molecule `CN1CCN(c2ncc3cc(-c4ccccc4)c(-c4ccc(CN5CCC(c6nnc(-c7ncccn7)[nH]6)CC5)cc4)nc3n2)CC1`, the IC50 was found to be 25 nM in test [3] and 40 nM in test [4].
For `O=c1[nH]ccc2nc(-c3ccc(CN4CCC(c5nnc(-c6ncccn6)[nH]5)CC4)cc3)c(-c3ccccc3)cc12`, the IC50 in test [1] is 7 nM; in test [2], 44 nM; in test [3], 23 nM; in test [4], 69 nM; in test [5] it was more than 10000 nM.
In the case of `CN1CCN(c2ccc3nc(-c4ccccc4)c(-c4ccc(CN5CCC(c6nnc(-c7ccccn7)[nH]6)CC5)cc4)nc3n2)CC1`, the values for the IC50 in test [3] and in test [4] were 18 nM and 92 nM, respectively.
For `CN1CCN(c2ccc3nc(-c4ccccc4)c(-c4ccc(CN5CCC(c6nnc(-c7ncccn7)[nH]6)CC5)cc4)nc3n2)CC1`, in that order: 52 nM and 192 nM.
`OCCN1CCN(c2ccc3nc(-c4ccccc4)c(-c4ccc(CN5CCC(c6nc(-c7ncccn7)n[nH]6)CC5)cc4)nc3n2)CC1`: the IC50 was 72 nM in test [3] and 190 nM in test [4].
Consider `Nc1ccc(-c2nnc(C3CCN(Cc4ccc(-c5nc6nc(N7CCN(CCO)CC7)ncc6cc5-c5ccccc5)cc4)CC3)[nH]2)cn1`, for which the IC50 in test [3] amounted to 38 nM; in test [4], 180 nM.
As to `CN1CCN(c2ccc3nc(-c4ccc(CN5CCC(c6nnc(-c7ccccn7)[nH]6)CC5)cc4)c(-c4ccccc4)nc3n2)CC1`, the IC50 in test [3] is 1410 nM; in test [4], 827 nM.
As for `CN1CCN(c2ncc3cc(-c4ccccc4)c(-c4ccc(CN5CCC(c6nnc(-c7ccc(N)nc7)[nH]6)CC5)cc4)nc3n2)CC1`, the concentration for half-maximal inhibition (IC50) in test [3] turned out to be 20 nM; in test [4], 84 nM; in test [5], 6100 nM.
Regarding `CN1CCN(c2ncc3cc(-c4ccccc4)c(-c4ccc(CN5CCC(c6nnc(-c7ccc(=O)[nH]c7)[nH]6)CC5)cc4)nc3n2)CC1`, the concentration for half-maximal inhibition (IC50) is 71 nM in test [3] and 188 nM in test [4].
As to `O=c1ccc(-c2nnc(C3CCN(Cc4ccc(-c5nc6cc[nH]c(=O)c6cc5-c5ccccc5)cc4)CC3)[nH]2)c[nH]1`, the IC50 in test [1] was 1 nM; in test [2] it was 8 nM; in test [3], 62 nM; in test [4], 284 nM; in test [5], more than 10000 nM.
On to `CN(C)CCN1CCN(c2ncc3cc(-c4ccccc4)c(-c4ccc(CN5CCC(c6nnc(-c7ncccn7)[nH]6)CC5)cc4)nc3n2)CC1`, for which the results for the 50% inhibitory concentration (IC50) in test [3], in test [4] and in test [5] were 35 nM, 130 nM and 4800 nM, respectively.
Turning to `Nc1ccc(-c2nnc(C3CCN(Cc4ccc(-c5nc6nc(N7CCN(CCO)CC7)ccc6nc5-c5ccccc5)cc4)CC3)[nH]2)cn1`, the IC50 in test [3] came to 115 nM; in test [4], 230 nM.
For the molecule `CN1CCN(c2ccc3nc(-c4ccccc4)c(-c4ccc(CN5CCC(c6nnc(-c7ccc(N)nc7)[nH]6)CC5)cc4)nc3n2)CC1`, the IC50 in test [3] turned out to be 70 nM; in test [4], 225 nM.
Take `CN(C)CCN1CCN(c2ncc3cc(-c4ccccc4)c(-c4ccc(CN5CCC(c6nnc(-c7cc[n+]([O-])cc7)[nH]6)CC5)cc4)nc3n2)CC1`: the 50% inhibitory concentration (IC50) in test [3] was 33 nM; in test [4], 68 nM; in test [5], 7900 nM.
Turning to `CN(C)CCN1CCN(c2ncc3cc(-c4ccccc4)c(-c4ccc(CN5CCC(c6nnc(-c7ccc(=O)[nH]c7)[nH]6)CC5)cc4)nc3n2)CC1`, the half-maximal inhibitory concentration (IC50) is 69 nM in test [3], 98 nM in test [4] and 800 nM in test [5].

The values above are taken from ChEMBL document CHEMBL1157525, “The design and synthesis of potent and cell-active allosteric dual Akt 1 and 2 inhibitors devoid of hERG activity” (Bioorg Med Chem Lett, 2008).
